What was measured:
[1] = biological target: T1, Somatostatin receptor type 4 (Homo sapiens, UniProt P31391); test: Displacement of [125I]-Tyr-SRIF from recombinant human SST4 receptor expressed in CHOK1 cell membranes after 90 mins by gamma counting method
[2] = biological target: T2, Somatostatin receptor type 2 (Homo sapiens, UniProt P30874); test: Displacement of [125I]-Tyr-SRIF from recombinant human SST2A receptor expressed in CHOK1 cell membranes after 90 mins by gamma counting method
[3] = biological target: T2, Somatostatin receptor type 2; test: Displacement of [125I]-LTT-SRIF-28 from recombinant human SST2 receptor expressed in CHO cell membranes after 60 mins by scintillation counting method
[4] = biological target: T2, Somatostatin receptor type 2; test: Displacement of 3-[125I]iodotyrosyl25-somatostatin-28 from recombinant human SST2 receptor expressed in CHOK1 cell membranes after 45 mins by scintillation counting method
[5] = biological target: T1, Somatostatin receptor type 4; test: Displacement of 3-[125I]iodotyrosyl25-somatostatin-28 from recombinant human SST4 receptor expressed in CHOK1 cell membranes after 45 mins by scintillation counting method
Homo sapiens [6] = organism: Homo sapiens; test: Selectivity ratio of Ki for displacement of [125I]-Tyr-SRIF from SST5 receptor (unknown origin) to Ki for displacement of [125I]-Tyr-SRIF from recombinant human SST4 receptor expressed in CHOK1 cell membranes
Homo sapiens [7] = organism: Homo sapiens; test: Selectivity ratio of Ki for displacement of [125I]-Tyr-SRIF from SST3 receptor (unknown origin) to Ki for displacement of [125I]-Tyr-SRIF from recombinant human SST4 receptor expressed in CHOK1 cell membranes
[8] = biological target: T1, Somatostatin receptor type 4; test: Agonist activity at recombinant human SST4 receptor expressed in CHOK1 cell membranes assessed as inhibition of forskolin-stimulated cAMP accumulation measured after 2.5 to 20 hrs by TR-FRET assay; format: functional, cell-based
[9] = biological target: Somatostatin receptor type 5 (Homo sapiens, UniProt P35346); test: Displacement of [125I]-Tyr-SRIF from SST5 receptor (unknown origin) after 90 mins by gamma counting method
Somatostatin receptor type 5, sequence (P35346 whole entry): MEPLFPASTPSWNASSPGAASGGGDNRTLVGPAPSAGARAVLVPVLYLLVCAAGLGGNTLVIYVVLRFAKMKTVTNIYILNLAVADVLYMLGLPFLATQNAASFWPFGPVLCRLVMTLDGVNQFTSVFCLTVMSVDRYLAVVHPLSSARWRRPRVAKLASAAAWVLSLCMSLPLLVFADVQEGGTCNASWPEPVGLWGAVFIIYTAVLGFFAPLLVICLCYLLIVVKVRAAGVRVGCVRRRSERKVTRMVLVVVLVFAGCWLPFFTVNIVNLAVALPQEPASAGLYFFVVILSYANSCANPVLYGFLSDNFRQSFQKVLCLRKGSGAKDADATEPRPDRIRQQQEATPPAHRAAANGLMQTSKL

[10] = biological target: Somatostatin receptor type 1 (Homo sapiens, UniProt P30872); test: Displacement of [125I]-Tyr-SRIF from SST1 receptor (unknown origin) after 90 mins by gamma counting method
Somatostatin receptor type 1, sequence (P30872 whole entry): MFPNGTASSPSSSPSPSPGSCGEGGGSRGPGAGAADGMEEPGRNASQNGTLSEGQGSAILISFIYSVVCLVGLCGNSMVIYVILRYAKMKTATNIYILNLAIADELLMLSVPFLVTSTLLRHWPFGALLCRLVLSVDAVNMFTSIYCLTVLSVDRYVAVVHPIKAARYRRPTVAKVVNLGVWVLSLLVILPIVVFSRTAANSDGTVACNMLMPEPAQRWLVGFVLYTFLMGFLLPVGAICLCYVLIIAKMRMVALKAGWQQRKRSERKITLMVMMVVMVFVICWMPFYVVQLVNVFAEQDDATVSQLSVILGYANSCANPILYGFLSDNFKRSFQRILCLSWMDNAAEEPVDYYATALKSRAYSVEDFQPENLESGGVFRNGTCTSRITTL

[11] = biological target: Somatostatin receptor type 3 (Homo sapiens, UniProt P32745); test: Displacement of [125I]-Tyr-SRIF from SST3 receptor (unknown origin) after 90 mins by gamma counting method
Somatostatin receptor type 3, sequence (P32745 whole entry): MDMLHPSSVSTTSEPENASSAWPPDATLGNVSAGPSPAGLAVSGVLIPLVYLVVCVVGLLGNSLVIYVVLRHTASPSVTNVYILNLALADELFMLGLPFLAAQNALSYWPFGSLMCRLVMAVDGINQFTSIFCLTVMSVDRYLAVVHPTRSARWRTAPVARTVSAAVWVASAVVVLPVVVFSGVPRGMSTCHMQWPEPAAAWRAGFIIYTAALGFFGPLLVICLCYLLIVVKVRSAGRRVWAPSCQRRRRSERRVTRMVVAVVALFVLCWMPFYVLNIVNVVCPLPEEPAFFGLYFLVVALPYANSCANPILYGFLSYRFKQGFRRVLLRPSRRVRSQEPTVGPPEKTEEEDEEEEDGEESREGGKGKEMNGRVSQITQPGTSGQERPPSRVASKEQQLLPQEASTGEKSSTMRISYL

Homo sapiens [12] = organism: Homo sapiens; test: Selectivity ratio of Ki for displacement of [125I]-Tyr-SRIF from SST1 receptor (unknown origin) to Ki for displacement of [125I]-Tyr-SRIF from recombinant human SST4 receptor expressed in CHOK1 cell membranes
Homo sapiens [13] = organism: Homo sapiens; test: Selectivity ratio of Ki for displacement of [125I]-Tyr-SRIF from recombinant human SST2A receptor expressed in CHOK1 cell membranes to Ki for displacement of [125I]-Tyr-SRIF from recombinant human SST4 receptor expressed in CHOK1 cell membranes

T2 sequence (P30874 whole entry): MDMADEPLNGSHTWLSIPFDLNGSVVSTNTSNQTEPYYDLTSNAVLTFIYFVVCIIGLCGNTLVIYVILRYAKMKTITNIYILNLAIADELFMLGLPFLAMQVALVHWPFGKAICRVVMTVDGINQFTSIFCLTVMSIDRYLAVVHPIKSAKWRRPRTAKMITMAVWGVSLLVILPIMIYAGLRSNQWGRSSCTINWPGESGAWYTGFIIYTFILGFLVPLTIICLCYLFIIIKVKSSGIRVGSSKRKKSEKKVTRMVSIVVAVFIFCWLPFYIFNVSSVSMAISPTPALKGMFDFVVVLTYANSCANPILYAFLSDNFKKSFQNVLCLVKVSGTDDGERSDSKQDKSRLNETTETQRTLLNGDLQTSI
T1 sequence (P31391 whole entry): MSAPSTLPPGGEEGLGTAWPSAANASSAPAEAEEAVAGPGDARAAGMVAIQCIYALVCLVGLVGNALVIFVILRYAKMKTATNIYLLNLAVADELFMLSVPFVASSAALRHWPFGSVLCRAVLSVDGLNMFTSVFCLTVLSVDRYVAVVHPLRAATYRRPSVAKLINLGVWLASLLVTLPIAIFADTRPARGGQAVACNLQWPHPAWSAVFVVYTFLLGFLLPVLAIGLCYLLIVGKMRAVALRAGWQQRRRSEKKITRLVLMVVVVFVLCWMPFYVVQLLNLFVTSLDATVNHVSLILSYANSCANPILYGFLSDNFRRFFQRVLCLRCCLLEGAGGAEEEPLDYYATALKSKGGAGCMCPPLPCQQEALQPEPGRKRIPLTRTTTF

Structure (SMILES)	Ki [1]	Ki [2]	further results
NCCCc1nnc(Cc2c[nH]c3ccccc23)n1Cc1ccccc1	> 10 µM	–	–
Clc1ccc(Cc2nnc(C3CCNCC3)n2CCc2c[nH]c3ccccc23)cc1Cl	> 10 µM	–	–
Clc1ccc(Cc2nnc(CCc3c[nH]cn3)n2CCc2c[nH]c3ccccc23)cc1Cl	4.8 µM	> 10 µM	–
Cc1ccc(S(=O)(=O)N[C@@H](CCN)C(=O)N[C@@H](Cc2ccccc2)C(N)=O)c2ccccc12	–	–	Ki [3]: > 5 µM
Clc1ccc(Cn2c(CCc3c[nH]c4ccccc34)nnc2C2CCNCC2)cc1Cl	> 10 µM	> 10 µM	–
NCCCc1nnc(CCc2c[nH]c3ccccc23)n1Cc1ccccc1	< 10 µM	> 10 µM	–
NCCCn1c(CCc2c[nH]c3ccccc23)nnc1Cc1ccc(Cl)c(Cl)c1	2.38 µM	> 10 µM	–
NCCCc1nnc(CCc2c[nH]c3ccccc23)n1Cc1ccc(Cl)c(Cl)c1	> 10 µM	> 10 µM	–
NCCCc1nnc(Cc2c[nH]c3ccccc23)n1Cc1ccc(Cl)c(Cl)c1	> 10 µM	> 10 µM	–
Clc1ccc(Cn2c(CCc3c[nH]cn3)nnc2Cc2c[nH]c3ccccc23)cc1Cl	> 10 µM	> 10 µM	–
COC(=O)[C@H](CCCN=C(N)N)NC(=O)CCCc1c(-c2ccccc2)[nH]c2c(F)cc(F)cc12	–	–	Ki [4]: 4.72 µM; Ki [5]: 0.0007 µM
c1ccc(Cn2c(CCc3c[nH]cn3)nnc2CCc2c[nH]c3ccccc23)cc1	4.47 µM	–	–
NCCCc1nnc(Cc2ccc(Cl)c(Cl)c2)n1CCc1c[nH]c2ccccc12	> 10 µM	–	–
Clc1ccc(Cn2c(Cc3c[nH]c4ccccc34)nnc2C2CCNCC2)cc1Cl	> 10 µM	–	–
c1ccc(CCn2c(CCc3c[nH]cn3)nnc2CCc2c[nH]c3ccccc23)cc1	2.03 µM	> 10 µM	–
c1ccc(Cn2c(CCc3c[nH]c4ccccc34)nnc2C2CCNCC2)cc1	> 10 µM	> 10 µM	–
c1ccc(Cn2c(Cc3c[nH]c4ccccc34)nnc2C2CCNCC2)cc1	> 10 µM	> 10 µM	–
Clc1ccc(Cc2nnc(CCc3c[nH]c4ccccc34)n2CCCc2c[nH]cn2)cc1Cl	0.019 µM	> 10 µM	Ratio Ki (Homo sapiens [6]): > 500; Ratio Ki (Homo sapiens [7]): 350; EC50 [8]: 0.0068 µM; Ki [9]: > 10 µM; Ki [10]: 4.75 µM; Ki [11]: 6.63 µM; Ratio Ki (Homo sapiens [12]): 250; Ratio Ki (Homo sapiens [13]): > 500
Clc1ccc(Cn2c(CCc3c[nH]cn3)nnc2CCc2c[nH]c3ccccc23)cc1Cl	1.43 µM	> 10 µM	–
c1ccc(Cn2c(CCc3c[nH]cn3)nnc2Cc2c[nH]c3ccccc23)cc1	> 10 µM	–	–
